Reference: patent US9474774B2, “Pyridine alkaloids, preparation process thereof, and the uses of the pyridine alkaloids” (FOOD INDUSTRY RESEARCH AND DEVELOPMENT INSTITUTE, priority 2010, dated 2016)
Where “and” joins values, the source holds several entries; their conditions need not be identical. Equal values may be shown once. Read-outs that look alike come from different tables or passages of the source.

Legend:
3T3-L1 preadipocytes [1] = assay: 3T3-L1 preadipocyte differentiation, DMI differentiation model; assay type: cell-based; details: for triglyceride droplets under inverted microscope: 5 μg/ml, vs DMI control; for TG (%): sample concentration 5 μg/ml, control = 100
Protocol: (§1) Preadipocytes were prepared according to the method described by Waki et al., (2007, “The small molecule harmine is an antidiabetic cell-type-specific regulator of PPARγ expression.” Cell Metabolism, 5(5): 357-370) and Huang et al., (2005, “Herbal or natural medicines as modulators of peroxisome proliferator-activated receptors and related nuclear receptors for therapy of metabolic syndrome.” Basic and Clinical Pharmacology and Toxicology, 96: 3-14.). Preadipocytes were cultured in DMEM (Dulbecco's Modified Eagle's Medium-high glucose, Sigma D-7777) containing 10% of fetal bovine serum (FBS) and incubated at 37° C. in a 5% CO2 incubator.
(§2) Before the differentiation induction experiments, the cells were plated into either 96- or 24-well plates (the concentration of cells in each well was about 2×10^4/cm^2). The plates were incubated for about two days to allow the cells to proliferate to confluence, and then maintained for another two days. The medium was changed to different differentiation media according to different experiments. The day of switching to differentiation medium was designated as day zero.
The differentiation medium used in DMI differentiation model comprised an three-in-one differentiation inducer (DMI): dexamethasone (Sigma D-4902, dissolved in ethanol to produce a 0.25M stock solution), isobutyl-methylxanthine (Sigma 1-5879, dissolved in DMSO to produce a 0.5M stock solution), and insulin (Sigma I-6634, dissolved in 0.01N HCl to produce a 10 mg/ml stock solution). The final concentrations of dexamethasone, isobutyl-methylxanthine and insulin were 0.25 μM, 0.5 mM and 5 μg/ml, respectively.
The four test compounds, Monasnicotinates A, B, C and D, were dissolved in DMSO respectively to produce a 5 mg/ml stock solution. One ml of the differentiation medium containing test sample was added to each well of the 24-well 3T3-L1 preadipocyte plates (the final concentration of the sample in each well was 5 μg/ml). The control group was the culture with only the differentiation medium and no sample. The cultures were incubated at 37° C. in a 5% CO2 incubator for three days, and then the medium was replaced by DMEM with 10% FBS. The cultures were maintained until day 9 or day 10, and the amounts of triglyceride in the cells were analyzed. The extents of differentiation (the amounts of oil droplets) were also examined under an inverted microscope.
(§3) The 96-well plates were rinsed with PBS, and 200 μl of PBS and 5 μl of AdipoRed reagent (Lonze Walkersville, Inc., Walkersville, Md., USA, Catalog No. PT-7009) were added to each well. After 10 to 15 minutes, the plates were read with a spectrofluorometer (Infinite M200) set at an excitation wavelength of 485 nm and an emission wavelength of 572 nm. The fluorescent data of the experiment group was divided by the fluorescent data of the control group to obtain a percentage of induction activity.
(§4) The 24-well plates were rinsed with PBS, and the cells were washed off with 0.1 ml of 1% Triton λ 100 per well. The cells were then frozen, thawed and centrifuged (10,000 rpm/5 min) and the supernatant were collected. An aliquot of 0.05 ml of the supernatant was analyzed using Triglycerol assay Kit (Audit Diagnostics, Ltd.).
(§5) The protein amounts were analyzed using Bio-Rad Dc Protein assay reagent (Bio-Rad). The triglyceride concentration was divided by the protein concentration obtained using Bio-Rad Dc Protein assay to calculated the amount (μg) of triglyceride per μg protein. The triglyceride amounts of the experiment groups were divided by those of the control groups to determine the differentiation induction activity of the samples.
(§6) 3T3-L1 preadipocytes differentiation assay was conduct according to Example 5.

3T3-L1 preadipocytes [2] = assay: 3T3-L1 preadipocyte differentiation, insulin differentiation model; assay type: cell-based; details: sample concentration 2 μg/ml, control = 100
Protocol: as §1, §2
The differentiation medium used in insulin differentiation model was DMEM with 10% FBS comprising 10 μg/ml of insulin. Differentiation media containing each of the four test compounds, Monasnicotinates A, B, C and D, were added to each well of the 24- or 96-well 3T3-L1 preadipocyte plates (the final concentration of the test compounds in each well is 2 μg/ml). The control group was the culture with only the differentiation medium and no sample. The cultures were incubated at 37° C. in a 5% CO2 incubator for seven days (during the period, the differentiation medium and sample were replaced with fresh ones twice), and then the medium was replaced by DMEM with 10% FBS. The cultures were maintained until day 9 or day 10. The cells of the experiment groups and control groups at day 9 or day 10 were stained with AdipoRed and the concentrations of triglyceride were analyzed.
as §3, §4, §5, §6

[3] = test system: LPS-stimulated macrophage cells RAW264.7; assay: Inhibition of NO production induced by LPS (Griess reagent); assay type: cell-based, murine; details: Mus musculus, LPS 1 μg/mL, 24 hours
Protocol: (§7) The murine macrophage cell line RAW264.7 (BCRC 60001=ATCC TIB-71) was cultured in Dulbecco's modified Eagle's medium (DMEM, Gibco BRL Life Technologies, Inc.) supplemented with 10% heat inactivated fetal bovine serum (FBS) and incubated at 37° C. in a humidified 5% CO2 atmosphere with a 96-well flat-bottomed culture plate. After 24 hours, the condition medium was replaced with fresh DMEM and FBS. Then the three test compounds, Monasnicotinates A, C and D, (0, 1, 5, 10, and 20 μg/mL) were added respectively in the presence of lipopolysaccharide (LPS, 1 μg/mL; Sigma, Cat no: L-2654), and the plates were incubated at the same condition for 24 hours.
(§8) The cultured cells were then centrifuged and the supernatants were used for NO production measurement, with a MTT (3-(4,5-dimethylthiazol-2yl)-2,5-diphenyl tetrazolium bromide) assay to determine cell viability. The supernatant was mixed with an equal volume of the Griess reagent (1% sulfanilamide, 0.1% N-(1-naphthyl)ethyl-enediamine dihydrochloride in 2.5% phosphoric acid solution) and incubated for 10 min at room temperature. Nitrite concentration was determined by measuring the absorbance at 540 nm using an ELISA plate reader (μ Quant) (see Mosman, T., 1983, “Rapid colorimetric assay for cellular growth and survival: application to proliferation and cytotoxicity assays.” J. Immunol. Methods, 65: 55-63). The MTT colorimetric assay was modified from that of Mosmann (see Johansson, M., et al., 2002, “Biologically active secondary metabolites from the ascomycete A111-95.” J. Antibiot., 55: 104-106). The test is based upon the selective ability of living cells to reduce the yellow soluble salt, MTT, to a purple-blue insoluble formazan. MTT (Merck; dissolved in phosphate-buffered saline at 5 mg/mL) solution was added onto the attached cells mentioned above (10 μl per 100 μl culture) and incubated at 37° C. for 4 hours. Then, DMSO was added and the amount of colored formazan metabolite formed was determined by absorbance at 550 nm. The optical density of formazan formed in control (untreated) cells was taken as 100% viability.

RAW264.7 = assay: MTT cell viability assay; assay type: cell-based, murine
Protocol: as §7, §8

PPARγ [4] = assay: Nuclear PPARγ ELISA in differentiated 3T3-L1 cells; assay type: cell-based; details: final sample concentration 5 μg/mL, control: medium only
Protocol: Nuclear and cytosolic proteins of the differentiated 3T3-L1 cells were extracted and the nuclear PPARγ and cytosolic adiponectin contents were analyzed using commercial kits.
(§9) 3T3-L1 cells were incubated and differentiated on petri dish (9 cm) for 9 days and washed with PBS. 1 ml of buffer A working solution (Affymetrix® Nuclear Extraction Kits, Panomics, Inc.; freshly prepared according to the instructions) was added to the petri dish, and the petri dish was placed on ice and shaken for 10 minutes on a shaker. Cells on the petri dish were transferred to a 1.5 ml centrifuge tube and centrifuged at 14,000 rpm for 3 minutes. The supernatant, the cytosol fraction, was collected for further analysis. 0.5 ml of buffer B working solution (Affymetrix® Nuclear Extraction Kits, Panomics, Inc.; freshly prepared according to the instructions) was added to the centrifuge tube to re-suspend the cell pellet and the centrifuge tube was placed on ice and shaken for two hours on a shaker. The centrifuge tube was then centrifuged at 14,000 rpm for 5 minutes. The supernatant, the nucleus fraction, was collected for further analysis.
Nuclear PPARγ in the nucleus fraction was analyzed using Transcription Factor PPARγ ELISA Kit (Panomics, Inc.) according to the instructions.

adiponectin = assay: Cytosolic adiponectin ELISA in differentiated 3T3-L1 cells; assay type: cell-based, Mouse; details: insulin model and DMI model, 5 μg/mL (FIG. 7)
Protocol: 3T3-L1 cells were treated with Monasnicotinates A, B, C and D (prepared in Example 3) as described in Example 5. Nuclear and cytosolic proteins of the differentiated 3T3-L1 cells were extracted and the nuclear PPARγ and cytosolic adiponectin contents were analyzed using commercial kits.
as §9
Cytosolic adiponectin in the cytosol fraction was analyzed using Quantikine Mouse Adiponectin immunoassay (R&D systems) according to the instructions.

PPARγ [5] = target: T1, PPARγ (Homo sapiens, UniProt P37231); assay: LanthaScreen TR-FRET PPARγ competitive binding assay
T1 construct: purchased Invitrogen
T1 sequence (P37231 204-505 limits assumed): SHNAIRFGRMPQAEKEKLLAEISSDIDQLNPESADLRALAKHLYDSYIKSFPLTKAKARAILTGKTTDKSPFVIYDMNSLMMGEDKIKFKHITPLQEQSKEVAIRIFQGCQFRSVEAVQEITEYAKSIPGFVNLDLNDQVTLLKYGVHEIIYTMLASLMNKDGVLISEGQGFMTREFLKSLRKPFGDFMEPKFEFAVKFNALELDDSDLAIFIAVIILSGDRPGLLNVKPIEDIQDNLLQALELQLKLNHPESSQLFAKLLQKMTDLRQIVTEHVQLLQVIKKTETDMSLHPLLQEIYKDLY
Protocol: Monasnicotinates A, B, C and D were prepared according to Example 3 and Ethanol and ethyl acetate extracts of BCRC 930146-fermented rice were prepared according to Example 7. The binding activity of Monasnicotinates A, B, C and D and ethanol and ethyl acetate extracts of BCRC 930146-fermented rice to PPARγ and PPARα were analyzed using competitive binding assay kits (LanthaScreen TR-FRET PPARγ Binding Assay and Invitrogen PPARα Competitive Binding Assay) according to their instructions. Troglitazone and arachidonic acid were used as reference substances for PPARγ and PPARα ligand, respectively.

[6] = test system: LPS-stimulated macrophage cells RAW264.7; details: literature value; read-out: IC50, production of NO by LPS-stimulated RAW264.7 (reported, Motai and Kitanaka 2005); cited from earlier work

Row | Compound | triglyceride droplets under inverted microscope (3T3-L1 preadipocytes [1]) | TG (%) (3T3-L1 preadipocytes [1]) | AdipoRed (%) (3T3-L1 preadipocytes [2]) | TG (%) (3T3-L1 preadipocytes [2]) | IC50 [3] | Cytotoxicity (MTT assay) (RAW264.7; 1-10 μg/mL, with LPS treatment for 24 hours) | PPARγ expression (% of control) (PPARγ [4]; DMI model) | PPARγ expression (% of control) (PPARγ [4]; Insulin model) | concentration of cytosolic adiponectin (adiponectin) | IC50 (PPARγ [5]) [µM] | Cytotoxicity (MTT assay) (RAW264.7; at 10 μg/mL) | Cytotoxicity (MTT assay) (RAW264.7; 1-20 μg/mL, with LPS treatment for 24 hours) | IC50 [6] [µM]
1 | C/C=C/c1cc(/C=C(\CC(=O)CCCCC)C(C)=O)c(C(=O)OC)cn1 [Monasnicotinate A, methyl-4-((E)-2-acetyl-4-oxonon-1-enyl)-6-((E)-prop-1-enyl)nicotinate] | more triglyceride droplets than the control culture | 159 | 159 | 128 | 5.72 µg/mL and 16 µM | did not show any significant cytotoxicity | 100 ± 7 % of control | 139 ± 1 % of control | increase | 42 | – | – | –
2 | C/C=C/c1cc(/C=C(\CC(=O)CCCCC)C(C)=O)c(C(=O)OCC)cn1 [Monasnicotinate B, ethyl-4-((E)-2-acetyl-4-oxonon-1-enyl)-6-((E)-prop-1-enyl)nicotinate] | more triglyceride droplets than the control culture | 175 | 287 | 132 | – | – | 147 ± 2 % of control | 237 ± 9 % of control | increase | 11 | – | – | –
3 | C/C=C/c1cc(/C=C(\CC(=O)CCCCCCC)C(C)=O)c(C(=O)OC)cn1 [Monasnicotinate C, methyl-4-((E)-2-acetyl-4-oxoundec-1-enyl)-6-((E)-prop-1-enyl)nicotinate] | more triglyceride droplets than the control culture | 132 | 209 | 145 | – | – | 115 ± 1 % of control | 333 ± 15 % of control | increase | 18.2 | significant cytotoxic effect | – | –
4 | CCCCCC(=O)C/C(=C\c1cc(CCC)ncc1C(=O)OC)C(C)=O [Monasnicotinate D, (E)-methyl-4-(2-acetyl-4-oxonon-1-enyl)-6-propylnicotinate] | more triglyceride droplets than the control culture | 204 | 247 | 169 | 9.4 µg/mL and 24.8 µM | – | 166 ± 5 % of control | 424 ± 19 % of control | increase | 64.5 | – | did not show any significant cytotoxicity | –
5 | O=c1c(O)c(-c2ccc(O)c(O)c2)oc2cc(O)cc(O)c12 [quercetin, reference compound] | – | – | – | – | 26.4 µM | – | – | – | – | – | – | – | 26.8
